The values below are quoted from earlier work in patent US20070292421A1, “Method for treating preeclampsia” (priority 2005, published 2007).

One series relates to severe sepsis. The settings on record: OPTIMIST trial.
Another series relates to human C5a receptor. The settings on record: numerous models of human disease.
The next series relates to trophoblast apoptosis. The settings on record: in vitro.
Series [1] relates to antineutrophil cytoplasmic antibody (ANCA) positive patients.
Series [2] deals with 5-HT2C, 5-HT2B, 5-HT1D, alpha-adrenergic, and dopamine receptors. The settings on record: relative to 5-HT2A.
Series [3] deals with serotonin 5-HT2A receptor (Homo sapiens, UniProt P28223).
Chain of serotonin 5-HT2A receptor (P28223 whole entry): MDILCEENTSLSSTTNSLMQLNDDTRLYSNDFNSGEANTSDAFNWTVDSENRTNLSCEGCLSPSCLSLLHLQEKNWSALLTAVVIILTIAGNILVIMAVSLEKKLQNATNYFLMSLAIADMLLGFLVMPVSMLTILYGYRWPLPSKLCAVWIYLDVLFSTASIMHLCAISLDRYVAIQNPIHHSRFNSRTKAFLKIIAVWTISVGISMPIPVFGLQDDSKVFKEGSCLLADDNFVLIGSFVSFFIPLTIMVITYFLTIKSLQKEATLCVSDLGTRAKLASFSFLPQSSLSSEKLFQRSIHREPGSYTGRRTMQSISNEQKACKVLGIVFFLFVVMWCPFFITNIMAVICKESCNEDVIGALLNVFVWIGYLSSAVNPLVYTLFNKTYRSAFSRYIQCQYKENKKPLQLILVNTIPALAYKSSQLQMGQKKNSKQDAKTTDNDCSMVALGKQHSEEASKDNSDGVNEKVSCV

For the compound “tifacogin: recombinant TFPI (Chiron Corp/Pharmacia Corp)”, the “treatment of severe sepsis” value in the series on severe sepsis is reported as “failure”.

With “Ac-Phe [3D53, Ac-Phe [Orn-Pro-D-Cha-Trp-Arg]]”, the anti-inflammatory activity entry with human C5a receptor is “excellent anti-inflammatory activity”.

For heparin, the “effect on trophoblast apoptosis” value in the series on trophoblast apoptosis is “regulate trophoblast apoptosis”.

Turning to `CC(=O)Oc1ccccc1C(=O)O` [aspirin], the “effect on trophoblast apoptosis” value with trophoblast apoptosis is listed as “regulate trophoblast apoptosis”.

Consider “Rituximab: monoclonal antibody that binds the B cell surface protein CD20 (Roche Pharmaceuticals)”, for which, in series [1] (n=11 patients combined, added to immunosuppressive drug regimen), the clinical improvement entry is recorded as “clinical improvement in all eleven cases”. Further, the “cases with complete clinical improvement” value in series [1] (of eleven cases) is “eight”.

As for `O=C(c1ccc(F)cc1)C1CCN(CCn2c(=O)[nH]c3ccccc3c2=O)CC1` [Ketanserin], in series [2], the binding entry is recorded as “binds less potently”. In addition, the affinity entry in series [3] was “high affinity”.
